Data set [1] concerns the target T1, PPH-5 - CeHsp90/DAF-21 complex (Caenorhabditis elegans, UniProt Q9NES8).
T1 construct: made in house
The experiment in a line: Analytical ultracentrifugation of PPH-5/YFP-Hsp90 complex formation. The settings on record: peptide 60 μM. Type of data set: binding, C. elegans. The protocol: Binding of Hsp90 to PPH-5 was analysed by analytical ultracentrifugation with fluorescence detection as described before. Experiments were performed in a Beckman ProteomeLab XL-A analytical ultracentrifuge (Beckman) equipped with an AU-FDS detector (Aviv Biomedical). Analytical ultracentrifugation (AUC) runs were performed in 40 mM HEPES/KOH, pH 7.5, 20 mM KCl, 1 mM DTT. The concentration of labelled YFP–Hsp90 was 300 nM and 3 μM of PPH-5 were added to form a complex with YFP–Hsp90. Where indicated 60 μM of the C-terminal Hsp90/DAF-21 peptide (AEEDASRMEEVD) was present in the sample. Centrifugation was performed at 20°C and 142000 g for 12 h. Scans were recorded every 90 s. Data analysis was performed using a dc/dt approach according to Stafford. The dc/dt plots were fit to Gaussian functions in order to obtain the s20,w values of the respective species as described previously. P5SAs were added as indicated.

The nature of a further data set: physchem. Type of data set: physicochemical. The settings on record: 20 °C, pH 7.5, aqueous buffer. The protocol:
(§1) Phosphatase assays for characterization of PP5 and PPH-5 properties were performed in 40 mM HEPES/KOH, 20 mM KCl, 5 mM MnCl2, 1 mM DTT, pH 7.5 and 60 mM pNPP at 20°C if not indicated otherwise. Phosphatase concentrations ranged from 50 to 500 nM in the assay. If indicated, the CeHsp90/DAF-21 peptide AEEDASRMEEVD was supplemented in the assay at a concentration of 60 μM. […] These concentrations were 70 μM for P5SA-1, 140 μM for P5SA-2, 50 μM for P5SA-3, 100 μM for P5SA-4 and 45 μM for P5SA-5.

For the next data set, the target named is T2, PPH-5 (Caenorhabditis elegans, UniProt Q9NES8).
T2 construct: made in house
T2 sequence (Q9NES8 1-496): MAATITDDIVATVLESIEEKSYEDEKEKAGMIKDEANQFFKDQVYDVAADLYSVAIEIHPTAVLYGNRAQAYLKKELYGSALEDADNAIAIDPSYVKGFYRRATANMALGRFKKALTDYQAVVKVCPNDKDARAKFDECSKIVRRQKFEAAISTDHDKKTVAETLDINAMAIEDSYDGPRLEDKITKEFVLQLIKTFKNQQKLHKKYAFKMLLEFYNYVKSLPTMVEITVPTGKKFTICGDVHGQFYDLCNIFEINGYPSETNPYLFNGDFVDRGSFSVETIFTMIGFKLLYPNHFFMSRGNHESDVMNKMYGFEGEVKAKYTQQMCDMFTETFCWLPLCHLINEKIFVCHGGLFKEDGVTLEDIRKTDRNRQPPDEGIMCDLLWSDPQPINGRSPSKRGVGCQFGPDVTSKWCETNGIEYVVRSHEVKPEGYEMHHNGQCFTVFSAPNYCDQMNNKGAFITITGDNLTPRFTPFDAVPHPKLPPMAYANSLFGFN
Briefly: pNPP phosphatase assay with nematode PPH-5. It is filed as biochemical, C. elegans. As to conditions: for fold activation / kcat: PPH-5 (C. elegans); for fold activation: based on kcat compared with PPH-5 basal activity; for activation of PPH-5 phosphatase activity: substances at 50 ng/ml, DMSO control; for kcat: 60 mM pNPP, in presence of compound. The protocol:
The compound library consisting of 10000 compounds (New Chemistry and Discovery Chemistry Collection, ChemDiv) was screened using a chromometric phosphatase assay with para-nitrophenyl phosphate (pNPP) as substrate. Phosphatase activity was determined by the conversion of pNPP to para-nitrophenole and absorption of the product at 410 nm (ε: 15100 cm^−1 M^−1). Assays were performed in 96-well plates in a PerkinElmer EnVision instrument with 50 nM of PPH-5. Reaction volume was 100 μl in a buffer of 40 mM HEPES, pH 7.5, 20 mM KCl, 5 mM MnCl2 and 1 mM DTT. The reaction was started by adding pNPP to a final concentration of 60 mM. The slope of the reaction was determined and deviations of >30% were considered potential hits leading to a collection of 76 initial compounds. […] These 76 compounds were maintained and rescreened individually in a Varian Cary 100 spectrophotometer (Agilent Technologies) in Hellma SUPRASIL precision quarz cells (10-mm path length) and 140 μl of reaction volumes. Finally, five compounds were obtained as reproducible activators and selected for further characterization.
as §1

A further data set concerns the target T3, PP5 (Rattus norvegicus, UniProt P53042).
T3 construct: His tag (inferred from pET28 vector and HisTrap purification); made in house; host or cells: E. coli BL21-CodonPlus (DE3)-RIL
T3 sequence (P53042 1-499): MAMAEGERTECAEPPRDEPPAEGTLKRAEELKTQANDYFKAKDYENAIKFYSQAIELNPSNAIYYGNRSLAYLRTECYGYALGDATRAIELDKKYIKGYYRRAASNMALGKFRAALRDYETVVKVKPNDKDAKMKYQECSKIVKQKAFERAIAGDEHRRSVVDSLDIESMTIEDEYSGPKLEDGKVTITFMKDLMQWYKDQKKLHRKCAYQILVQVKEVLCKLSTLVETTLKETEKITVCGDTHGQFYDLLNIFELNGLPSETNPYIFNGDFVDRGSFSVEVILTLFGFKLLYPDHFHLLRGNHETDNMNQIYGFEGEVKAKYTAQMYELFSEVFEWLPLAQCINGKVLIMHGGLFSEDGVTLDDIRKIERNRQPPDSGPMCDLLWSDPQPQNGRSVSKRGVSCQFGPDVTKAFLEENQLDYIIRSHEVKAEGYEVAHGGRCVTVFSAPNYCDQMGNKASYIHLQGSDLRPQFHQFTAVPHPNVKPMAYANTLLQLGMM
The experiment in a line: pNPP phosphatase assay with rat PP5. Type of data set: biochemical, R. norvegicus. The settings on record: PP5 (R. norvegicus). The protocol: as §1

Converted amounts (≈) assume the structure as drawn.

This is an account of results in article PMC4721540, “Selective activators of protein phosphatase 5 target the auto-inhibitory mechanism” (Bioscience Reports, 2015).

As for “AEEDASRMEEVD [MEEVD peptide, C-terminal Hsp90/DAF-21 peptide from Biomatik, used as control to disrupt the PPH-5–Hsp90 complex]”, in data set [1] (300 nM YFP–Hsp90, 3 μM PPH-5, P5SAs at maximal soluble concentration), the “effect on complex formation between PPH-5 and YFP–Hsp90” value was “complex formation is strongly reduced”. Moreover, the “sedimentation coefficient s20,w of YFP–Hsp90 with PPH-5 in presence of substance” value in data set [1] (complex without substance 8.9 S, YFP–Hsp90 alone 6.8 S) is listed as 7.6 S.
What is called solubility is how much of the substance goes into solution per volume. A high value points to much dissolved substance. The compound `CN1CCc2c(sc(-n3cccc3)c2CNC(=O)NC23CC4CC(CC(C4)C2)C3)C1` [P5SA-3] displayed a solubility in “physchem” of 50 µM (≈ 21.2 µg/mL). In addition, the fold activation on PPH-5 was determined as 4.0; on PP5 (compound at 30 μM (solubility limited)) it was 2.9. Besides, the “activation of PPH-5 phosphatase activity” value on PPH-5 is recorded as “activate PPH-5”.
The kcat is the maximal rate divided by the concentration of active sites. `O=c1cc2nc(-c3ccc(F)cc3)nc(SCc3ccc(Br)cc3)n2[nH]1` [P5SA-4]: the concentration in solution in “physchem” (solubility) came to 100 µM (≈ 43.1 µg/mL). In addition, on PPH-5, the kcat is 4.85 ± 0.43 s⁻¹, the fold activation is given as 7.8 and the “activation of PPH-5 phosphatase activity” value is reported as “activate PPH-5”. Besides, the fold activation on PP5 (compound at 100 μM) was 3.0.
For `FC(F)(F)c1c2c(nc3c(-c4ccc(Cl)cc4)cnn13)CCC2` [P5SA-1] the same measures were 70 µM (≈ 23.6 µg/mL), 2.28 ± 0.28 s⁻¹, 3.7, “activate PPH-5” and 4.1.
